Laboratory results reported in patent US20220135591A1, “HETEROCYCLIC COMPOUNDS AS INHIBITORS OF MONOACYLGLYCEROL LIPASE (MAGL)” (Hoffmann-La Roche Inc., priority 2019, published 2022).

What follows are compounds tested against T1, MAGL (Homo sapiens, UniProt Q99685) (assay: 2-AG assay: MAGL inhibitory activity by hydrolysis of 2-arachidonoylglycerol to arachidonic acid, mass spectrometry). Conditions: 2-AG assay (values marked [b]).
T1 sequence (Q99685 1-303): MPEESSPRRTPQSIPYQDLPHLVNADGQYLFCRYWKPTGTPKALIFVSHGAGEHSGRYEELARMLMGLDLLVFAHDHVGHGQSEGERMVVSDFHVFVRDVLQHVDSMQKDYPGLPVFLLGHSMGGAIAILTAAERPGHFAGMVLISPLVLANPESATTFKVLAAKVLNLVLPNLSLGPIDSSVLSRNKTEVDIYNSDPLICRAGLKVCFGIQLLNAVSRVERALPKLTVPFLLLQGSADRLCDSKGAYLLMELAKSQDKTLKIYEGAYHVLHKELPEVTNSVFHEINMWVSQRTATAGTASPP
Format: biochemical
Description: Alternatively, compounds were profiled for MAGL inhibitory activity by determining the enzymatic activity by following the hydrolysis of the natural substrate 2-arachidonoylglycerol (2-AG) resulting in arachidonic acid, which can be followed by mass spectrometry. This assay is hereinafter abbreviated “2-AG assay”.
The 2-AG assay was carried out in 384 well assay plates (PP, Greiner Cat #784201) in a total volume of 20 μL. Compound dilutions were made in 100% DMSO (VWR Chemicals 23500.297) in a polypropylene plate in 3-fold dilution steps to give a final concentration range in the assay from 12.5 μM to […]. 0.25 μL compound dilutions (100% DMSO) were added to 9 μL MAGL in assay buffer (50 mM TRIS (GIBCO, 15567-027), 1 mM EDTA (Fluka, 03690-100 mL), 0.01% (v/v) Tween. After shaking, the plate was incubated for 15 min at RT. To start the reaction, 10 μL 2-arachidonoylglycerol in assay buffer was added. The final concentrations in the assay was […] and 8 μM 2-arachidonoylglyerol. After shaking and 30 min incubation at RT, the reaction was quenched by the addition of 40 μL of ACN containing 4 μM of d8-arachidonic acid. The amount of arachidonic acid was traced by an online SPE system (Agilent Rapidfire) coupled to a triple quadrupole mass spectrometer (Agilent 6460). A C18 SPE cartridge (G9205A) was used in an ACN/water liquid setup. The mass spectrometer was operated in negative electrospray mode following the mass transitions 303.1→259.1 for arachidonic acid and 311.1→267.0 for d8-arachidonic acid. The activity of the compounds was calculated based on the ratio of intensities [arachidonic acid/d8-arachidonic acid].

Row | SMILES | IC50 [nM]
1 | Cc1ccc2oc(N3CCN(C(=O)c4ccc(-c5nnc(CC(C)(C)C)n5C)cc4)CC3)nc2n1 [Example 74, [4-[5-(2,2-dimethylpropyl)-4-methyl-1,2,4-triazol-3-yl]phenyl]-[4-(5-methyloxazolo[4,5-b]pyridin-2-yl)piperazin-1-yl]methanone] | 327
2 | Cc1ccc2oc(N3CCN(C(=O)c4ccc(-c5cn(CC(C)(C)C)nn5)cc4)CC3)nc2n1 [Example 75, [4-[1-(2,2-dimethylpropyl)triazol-4-yl]phenyl]-[4-(5-methyloxazolo[4,5-b]pyridin-2-yl)piperazin-1-yl]methanone] | 19
3 | Cn1c(-c2ccc(C(=O)N3CCN(c4nc5nc(Cl)ccc5o4)CC3)cc2)nnc1C(C)(C)C [Example 76, [4-(5-tert-butyl-4-methyl-1,2,4-triazol-3-yl)phenyl]-[4-(5-chlorooxazolo[4,5-b]pyridin-2-yl)piperazin-1-yl]methanone] | 1310
4 | Cc1ccc2oc(N3CCN(C(=O)c4ccc(-c5nnc(C(C)(C)C)n5C)cc4)CC3)nc2n1 [Example 77, [4-(5-tert-butyl-4-methyl-1,2,4-triazol-3-yl)phenyl]-[4-(5-methyloxazolo[4,5-b]pyridin-2-yl)piperazin-1-yl]methanone] | 2320
5 | CC(C)(C)c1nc(-c2ccc(C(=O)N3CCN(c4nc5nc(Cl)ccc5o4)CC3)cc2Cl)no1 [Example 78, [4-(5-tert-butyl-1,2,4-oxadiazol-3-yl)-3-chloro-phenyl]-[4-(5-chlorooxazolo[4,5-b]pyridin-2-yl)piperazin-1-yl]methanone] | 4
6 | Cc1ccc2oc(N3CCN(C(=O)c4ccc(-c5noc(C(C)(C)C)n5)c(Cl)c4)CC3)nc2n1 [Example 79, [4-(5-tert-butyl-1,2,4-oxadiazol-3-yl)-3-chloro-phenyl]-[4-(5-methyloxazolo[4,5-b]pyridin-2-yl)piperazin-1-yl]methanone] | 24
7 | CC(C)(C)c1nc(-c2c(F)cc(C(=O)N3CCN(c4nc5nc(Cl)ccc5o4)CC3)cc2F)no1 [Example 80, [4-(5-tert-butyl-1,2,4-oxadiazol-3-yl)-3,5-difluoro-phenyl]-[4-(5-chlorooxazolo[4,5-b]pyridin-2-yl)piperazin-1-yl]methanone] | 21
8 | CC(C)(C)c1nc(-c2ccc(C(=O)N3CCN(c4nc5nc(Cl)ccc5o4)CC3)cc2C(F)(F)F)no1 [Example 81, [4-(5-tert-butyl-1,2,4-oxadiazol-3-yl)-3-(trifluoromethyl)phenyl]-[4-(5-chlorooxazolo[4,5-b]pyridin-2-yl)piperazin-1-yl]methanone] | 9
9 | Cc1ccc2oc(N3CCN(C(=O)c4ccc(-c5nnc(C(C)(C)C)o5)c(C)c4)CC3)nc2n1 [Example 82, [4-(5-tert-butyl-1,3,4-oxadiazol-2-yl)-3-methyl-phenyl]-[4-(5-methyloxazolo[4,5-b]pyridin-2-yl)piperazin-1-yl]methanone] | 37
10 | Cc1cc(C(=O)N2CCN(c3nc4nc(Cl)ccc4o3)CC2)ccc1-c1nnc(C(C)(C)C)o1 [Example 83, [4-(5-tert-butyl-1,3,4-oxadiazol-2-yl)-3-methyl-phenyl]-[4-(5-chlorooxazolo[4,5-b]pyridin-2-yl)piperazin-1-yl]methanone] | 11
11 | CC(C)(C)Cn1ncc(-c2ccc(C(=O)N3CCN(c4nc5nc(Cl)ccc5o4)CC3)cc2F)n1 [Example 84, (4-(5-chlorooxazolo[4,5-b]pyridin-2-yl)piperazin-1-yl)(3-fluoro-4-(2-neopentyl-2H-1,2,3-triazol-4-yl)phenyl)methanone] | 2
12 | Cc1ccc2oc(N3CCN(C(=O)c4ccc(-c5cnn(CC(C)(C)C)n5)c(F)c4)CC3)nc2n1 [Example 85, (3-fluoro-4-(2-neopentyl-2H-1,2,3-triazol-4-yl)phenyl)(4-(5-methyloxazolo[4,5-b]pyridin-2-yl)piperazin-1-yl)methanone] | 5
13 | CC(C)(C)Cn1cc(-c2ccc(C(=O)N3CCN(c4nc5nc(Cl)ccc5o4)CC3)cc2F)nn1 [Example 86, (4-(5-chlorooxazolo[4,5-b]pyridin-2-yl)piperazin-1-yl)(3-fluoro-4-(1-neopentyl-1H-1,2,3-triazol-4-yl)phenyl)methanone] | 2
14 | Cc1ccc2oc(N3CCN(C(=O)c4ccc(-c5cn(C(C)(C)C)nn5)cc4)CC3)nc2n1 [Example 87, (4-(1-(tert-butyl)-1H-1,2,3-triazol-4-yl)phenyl)(4-(5-methyloxazolo[4,5-b]pyridin-2-yl)piperazin-1-yl)methanone] | 151
15 | CC(C)(C)n1cc(-c2ccc(C(=O)N3CCN(c4nc5nc(Cl)ccc5o4)CC3)cc2)nn1 [Example 88, (4-(1-(tert-butyl)-1H-1,2,3-triazol-4-yl)phenyl)(4-(5-chlorooxazolo[4,5-b]pyridin-2-yl)piperazin-1-yl)methanone] | 71
16 | Cc1ccc2oc(N3CCN(C(=O)c4ccc(-c5ncn(C(C)(C)C)n5)c(Cl)c4)CC3)nc2n1 [Example 89, (4-(1-(tert-butyl)-1H-1,2,4-triazol-3-yl)-3-chlorophenyl)(4-(5-methyloxazolo[4,5-b]pyridin-2-yl)piperazin-1-yl)methanone] | 25
17 | CC(C)(C)n1cnc(-c2ccc(C(=O)N3CCN(c4nc5nc(Cl)ccc5o4)CC3)cc2Cl)n1 [Example 90, (4-(1-(tert-butyl)-1H-1,2,4-triazol-3-yl)-3-chlorophenyl)(4-(5-chlorooxazolo[4,5-b]pyridin-2-yl)piperazin-1-yl)methanone] | 16

Results, then the compound that gave them:

Row | IC50 [nM] | SMILES
18 | 63 | CC(C)(C)Cn1cc(-c2ccc(C(=O)N3CCN(c4nc5nc(Cl)ccc5o4)C[C@H]3CO)cc2)nn1 (stereo in doubt) [Example 289, [(2S)-4-(5-chlorooxazolo[4,5-b]pyridin-2-yl)-2-(hydroxymethyl)piperazin-1-yl]-[4-[1-(2,2-dimethylpropyl)triazol-4-yl]phenyl]methanone]
19 | 2070 | CC(C)(C)Cn1cc(-c2ccc(C(=O)N3CCN(c4nc5nc(Cl)ccc5o4)C[C@@H]3CO)cc2)nn1 (stereo in doubt) [Example 290, [(2R)-4-(5-chlorooxazolo[4,5-b]pyridin-2-yl)-2-(hydroxymethyl)piperazin-1-yl]-[4-[1-(2,2-dimethylpropyl)triazol-4-yl]phenyl]methanone]
20 | 3 | CC(C)(C)Cn1ncc(-c2c(F)cc(C(=O)N3CCN(c4nc5nc(Cl)ccc5o4)CC3)cc2F)n1 [Example 91, (4-(5-chlorooxazolo[4,5-b]pyridin-2-yl)piperazin-1-yl)(3,5-difluoro-4-(2-neopentyl-2H-1,2,3-triazol-4-yl)phenyl)methanone]
21 | 10 | Cc1ccc2oc(N3CCN(C(=O)c4cc(F)c(-c5cnn(CC(C)(C)C)n5)c(F)c4)CC3)nc2n1 [Example 92, (3,5-difluoro-4-(2-neopentyl-2H-1,2,3-triazol-4-yl)phenyl)(4-(5-methyloxazolo[4,5-b]pyridin-2-yl)piperazin-1-yl)methanone]
22 | 7 | CC(C)(C)Cn1cc(-c2c(F)cc(C(=O)N3CCN(c4nc5nc(Cl)ccc5o4)CC3)cc2F)nn1 [Example 93, (4-(5-chlorooxazolo[4,5-b]pyridin-2-yl)piperazin-1-yl)(3,5-difluoro-4-(1-neopentyl-1H-1,2,3-triazol-4-yl)phenyl)methanone]
23 | 88 | Cc1ccc2oc(N3CCN(C(=O)c4ccc(-c5cn(C67CC(C6)C7)nn5)cc4)CC3)nc2n1 [Example 94, (4-(1-(bicyclo[1.1.1]pentan-1-yl)-1H-1,2,3-triazol-4-yl)phenyl)(4-(5-methyloxazolo[4,5-b]pyridin-2-yl)piperazin-1-yl)methanone]
24 | 42 | O=C(c1ccc(-c2cn(C34CC(C3)C4)nn2)cc1)N1CCN(c2nc3nc(Cl)ccc3o2)CC1 [Example 95, (4-(1-(bicyclo[1.1.1]pentan-1-yl)-1H-1,2,3-triazol-4-yl)phenyl)(4-(5-chlorooxazolo[4,5-b]pyridin-2-yl)piperazin-1-yl)methanone]
25 | 23 | Cc1ccc2oc(N3CCN(C(=O)c4ccc(-c5ncn(C(C)(C)C)n5)c(C)c4)CC3)nc2n1 [Example 96, (4-(1-(tert-butyl)-1H-1,2,4-triazol-3-yl)-3-methylphenyl)(4-(5-methyloxazolo[4,5-b]pyridin-2-yl)piperazin-1-yl)methanone]
26 | 12 | Cc1cc(C(=O)N2CCN(c3nc4nc(Cl)ccc4o3)CC2)ccc1-c1ncn(C(C)(C)C)n1 [Example 97, (4-(1-(tert-butyl)-1H-1,2,4-triazol-3-yl)-3-methylphenyl)(4-(5-chlorooxazolo[4,5-b]pyridin-2-yl)piperazin-1-yl)methanone]
